The text below walks through data of PubChem BioAssay (NCI).

Some test systems named below: HL-60(TB) leukemia; SN12C renal; A549 NSCLC; RPMI-8226 leukemia; OVCAR-8 ovarian; SF-539 CNS; CCRF-CEM leukemia; SNB-75 CNS; EKVX NSCLC; NCI/ADR-RES ovarian.
Test in all cases: DTP human tumour cell line panel, 48 h

As a reminder, the TGI is the concentration at which net growth stops.

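1) Cells in 96-well plates. 2) Compound, 48 h, 5 concentrations. 3) Linear interpolation between surrounding doses. 4) Unreached endpoint = highest concentration. Definition used: TGI = concentration required for complete inhibition of growth.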

For `c1ccc2c(c1)CCCC/C2=N/OCC1CO1` (stereo unspecified), the TGI in the experiment with HL-60(TB) leukemia is 44.1 µM; with SN12C renal it was greater than 100 µM; with A549 NSCLC, greater than 100 µM; in the experiment on RPMI-8226 leukemia, 72.9 µM; in the experiment with OVCAR-8 ovarian it was greater than 100 µM; in the experiment with SF-539 CNS it was greater than 100 µM. For the same molecule, the TGI in the experiment with CCRF-CEM leukemia, in the experiment with SNB-75 CNS and with EKVX NSCLC was greater than 100 µM in each case.

On to `O=C(O)/C=C\C(=O)Nc1ccc(S(=O)(=O)c2ccc(NC(=O)/C=C\C(=O)O)cc2)cc1`, for which the TGI in the experiment with HL-60(TB) leukemia, in the experiment on SN12C renal, with A549 NSCLC, with RPMI-8226 leukemia, in the experiment on OVCAR-8 ovarian and in the experiment with SF-539 CNS was greater than 100 µM throughout. In addition, the TGI in the experiment with CCRF-CEM leukemia, in the experiment on SNB-75 CNS and with EKVX NSCLC was greater than 100 µM throughout.

Take `COC(=O)[C@H](Cc1ccccc1)NC(=O)N(CCC#N)CCN(C(=O)N[C@@H](Cc1ccccc1)C(=O)OC)c1ccccc1`: the TGI in the experiment on SN12C renal was 89 µM; with NCI/ADR-RES ovarian, greater than 100 µM; with A549 NSCLC it was greater than 100 µM; in the experiment on RPMI-8226 leukemia, 43.9 µM; in the experiment with OVCAR-8 ovarian, greater than 100 µM; with SF-539 CNS it was 41.1 µM. Also, the concentration for total growth inhibition (TGI) in the experiment on CCRF-CEM leukemia stood at 87 µM; in the experiment on SNB-75 CNS it was 45.3 µM; in the experiment with EKVX NSCLC it was 73.2 µM.

With `COc1cc([N+](=O)[O-])c(OC)c2c(Nc3ccc(S(=O)(=O)O)c4cc(S(=O)(=O)O)cc(S(=O)(=O)O)c34)cc(C)nc12`, the TGI in the experiment on HL-60(TB) leukemia, in the experiment on SN12C renal, in the experiment on NCI/ADR-RES ovarian, in the experiment on A549 NSCLC, with OVCAR-8 ovarian and in the experiment with SF-539 CNS was greater than 100 µM each time. The TGI with CCRF-CEM leukemia, in the experiment with SNB-75 CNS and in the experiment with EKVX NSCLC was greater than 100 µM each time.

As to `O=C1c2cccc(O)c2C(=O)c2c(O)cc(CO)cc21`, the TGI with HL-60(TB) leukemia, in the experiment with SN12C renal, in the experiment on A549 NSCLC, in the experiment on RPMI-8226 leukemia, with CCRF-CEM leukemia and with SNB-75 CNS was greater than 100 µM each time.

As to `COC(=O)C1(O)C(c2ccccc2)=NC2(C)CCCC21` (stereo unspecified), the TGI in the experiment on SN12C renal, with NCI/ADR-RES ovarian, in the experiment with A549 NSCLC, in the experiment with RPMI-8226 leukemia, in the experiment with OVCAR-8 ovarian and with CCRF-CEM leukemia was greater than 100 µM each time. In the experiment on SNB-75 CNS, this molecule yielded a TGI greater than 100 µM.

As to `COc1ccc(/C=N/n2c(C)nc3c(sc(=S)n3-c3ccccc3)c2=O)cc1`, the TGI with HL-60(TB) leukemia is 61.2 µM; with A549 NSCLC it was greater than 100 µM; in the experiment on RPMI-8226 leukemia, greater than 100 µM; in the experiment on OVCAR-8 ovarian, greater than 100 µM; in the experiment on SF-539 CNS it was greater than 100 µM; in the experiment with CCRF-CEM leukemia it was 54.2 µM. In the experiment on SNB-75 CNS, the TGI was determined as 41.4 µM.

In the case of `C[C@H]1OC(=O)[C@@H]2N=NN(Cc3ccccc3)[C@H]12`, the total growth inhibition concentration (TGI) with SN12C renal, with NCI/ADR-RES ovarian, in the experiment with A549 NSCLC, in the experiment with RPMI-8226 leukemia, in the experiment with OVCAR-8 ovarian and with SF-539 CNS was greater than 100 µM each time.

Consider `O=C(CC(=O)Nc1ccccc1)NNC(c1cc(N=Nc2ccc(Br)cc2)ccc1O)P(O)O` (stereo unspecified), for which the TGI with HL-60(TB) leukemia was 1.12 µM; with SN12C renal, greater than 10 µM; with NCI/ADR-RES ovarian, greater than 10 µM; with A549 NSCLC it was greater than 10 µM; in the experiment with RPMI-8226 leukemia, greater than 10 µM; in the experiment with OVCAR-8 ovarian, greater than 10 µM. Further, the TGI in the experiment on SF-539 CNS was greater than 10 µM; in the experiment with CCRF-CEM leukemia, 8.25 µM; in the experiment with SNB-75 CNS, greater than 10 µM.

As to `C/C(=C\CO)CC/C=C(\C)CNc1ccc([N+](=O)[O-])cc1`, the TGI with HL-60(TB) leukemia is 57.2 µM; in the experiment with SN12C renal it was greater than 100 µM; with NCI/ADR-RES ovarian, 64.5 µM; in the experiment on A549 NSCLC, greater than 100 µM; with OVCAR-8 ovarian, greater than 100 µM; with SF-539 CNS it was greater than 100 µM. For the same molecule, the TGI with SNB-75 CNS and in the experiment with EKVX NSCLC was greater than 100 µM each time.

Consider `Cc1cccc(/C(Br)=C2/OC(=O)c3ccccc32)c1`, for which the TGI in the experiment with SN12C renal, in the experiment on A549 NSCLC, in the experiment with RPMI-8226 leukemia, in the experiment with OVCAR-8 ovarian, with SF-539 CNS and in the experiment on CCRF-CEM leukemia was greater than 100 µM throughout. Moreover, the TGI in the experiment with SNB-75 CNS and with EKVX NSCLC was greater than 100 µM each time.

Regarding `CC(C)C(N)C(=O)NC(CCC(=O)NCCCCC(N)C(=O)NCCCNc1ccc([N+](=O)[O-])c2[nH]c3ccccc3c(=O)c12)C(N)=O` (stereo unspecified), the TGI in the experiment on NCI/ADR-RES ovarian, in the experiment on A549 NSCLC, in the experiment on RPMI-8226 leukemia, in the experiment on OVCAR-8 ovarian, with CCRF-CEM leukemia and in the experiment on SNB-75 CNS was greater than 100 µM in each case. Also, in the experiment with EKVX NSCLC, the TGI was greater than 100 µM.

For the molecule `COP(=O)(OC)C(Nc1ccc(Cc2ccc(NC(c3ccco3)P(=O)(OC)OC)cc2)cc1)c1ccco1` (stereo unspecified), the TGI in the experiment on HL-60(TB) leukemia was greater than 100 µM; in the experiment with SN12C renal it was greater than 100 µM; in the experiment on NCI/ADR-RES ovarian it was greater than 100 µM; in the experiment with A549 NSCLC, greater than 100 µM; with OVCAR-8 ovarian, greater than 100 µM; in the experiment on SF-539 CNS, 16.2 µM. Also, the figures for the TGI with CCRF-CEM leukemia, in the experiment with SNB-75 CNS and in the experiment with EKVX NSCLC were greater than 100 µM, 10.2 µM and 94.4 µM, respectively.

As to `CCOC(=O)C1=CC(C)(C(=O)OCC)Nc2c(nc(N)[nH]c2=O)N1` (stereo unspecified), the concentration for total growth inhibition (TGI) with SN12C renal, in the experiment with NCI/ADR-RES ovarian, in the experiment with A549 NSCLC, in the experiment on RPMI-8226 leukemia, in the experiment on OVCAR-8 ovarian and in the experiment with SF-539 CNS was greater than 10 µM in each case. The TGI with CCRF-CEM leukemia, in the experiment on SNB-75 CNS and in the experiment with EKVX NSCLC was greater than 10 µM in each case.

As for `CC1(C)OC2COC3([C@@H]4OC(C)(C)O[C@@H]4CO)OC(C)(C)OC3C2O1` (stereo partly specified), the TGI in the experiment with SN12C renal, in the experiment with NCI/ADR-RES ovarian, in the experiment with A549 NSCLC, in the experiment on RPMI-8226 leukemia, with OVCAR-8 ovarian and in the experiment with SF-539 CNS was greater than 100 µM each time. The TGI in the experiment with CCRF-CEM leukemia, in the experiment with SNB-75 CNS and in the experiment on EKVX NSCLC was greater than 100 µM in each case.
